Assay results reported in patent US12484574B2, “Agent for promoting undifferentiation and cryoprotective agent using aprotic zwitterion” (JAPAN SCIENCE AND TECHNOLOGY AGENCY, priority 2019, dated 2025).

Experiments:
Human iPS cells = assay: Undifferentiation-specific gene expression analysis (Nanog, Oct3/4 quantitative PCR); type: cell-based; conditions: no addition defined as 1
Protocol: Human iPS cells (RIKEN BRC) were reconstituted on SNL feeder cells (manufactured by Cell Biolabs, Inc.) and cultured in a CO2 incubator (5% CO2, 37° C., wet). On the next day, medium replacement was performed. The medium was replaced with a fresh one every day until 80% confluency. The cells that reached 80% confluency were recovered and subcultured. The subculture method for the cells is as follows: the cells were washed with DPBS(−) (no calcium, no magnesium, Thermo Fisher Scientific Inc.) and then treated with a CTK solution ((0.25% trypsin+1 mg/ml collagenase IV+1 mM CaCl2+20% KSR in DPBS (−))). The CTK solution was removed, and the cells were washed with DPBS(−) twice. […]
Subsequently, the expression levels of undifferentiation-specific genes Nanog and Oct3/4 were measured. […] The expression levels of the undifferentiation markers were quantified by the following method. […]
cDNA was synthesized from the FastLane lysate (RNA) through RT-PCR reaction using QuantiTect Reverse Transcription Kit (manufactured by Qiagen N.V.).
The quantitative PCR of OCT3/4 and NANOG was carried out under conditions of 95° C. for 30 seconds; (95° C. for 5 seconds; 60° C. for 30 seconds)×40; dissociation using SYBR Premix Ex Taq II (Tli RNaseH Plus) (manufactured by Takara Bio Inc.). […]

human fibroblasts = assay: Influence on cell cycle (Click-iT Plus EdU cell proliferation assay); type: cell-based; conditions: 2% addition; compared with no addition; FIG. 11
Protocol: The cells used were human fibroblasts.
The test groups were 1% addition groups and 2% addition groups of DMSO and HLS (OE2imC3C) vs. a control.
Cell cycle analysis was conducted using Click-iT® Plus EdU cell proliferation assay (Thermo Fisher Scientific Inc.) containing 5-ethynyl-2′-deoxyuridine (EdU) according to the manufacturer's protocol. The cells were incubated in 10 μM EdU for 1 hour, treated with trypsin, then fixed in 4% PFA, and labeled with Alexa Fluor 647 picolyl azide. The cells were stained with 4′,6-diamidino-2-phenylindole (DAPI) and analyzed with BD FACSAria™ III (BD Biosciences).

COCCOCCn1cc[n+](CCCC(=O)[O-])c1 [OE2imC3C]
relative expression levels of Nanog and Oct3/4 (Human iPS cells; with SNL feeder cells, 0.4, 1.0 and 2.0% (w/v) in human iPS cell medium, FIG. 1): amplify the undifferentiation markers | relative expression levels of Nanog and Oct3/4 (Human iPS cells; without feeder cells, 1.0 and 2.0% (w/v) in SNL-conditioned medium, FIG. 2): amplify the undifferentiation markers | influence on cell cycle (G0/G1 phase, S phase) (human fibroblasts): little influence
